Key:
Assay in all cases: cells
[1] = system: COLO-800; format: functional, cell-based, Homo sapiens; conditions: Homo sapiens, COLO-800;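 also: growth inhibition of COLO-800 cells, read out with a cell viability assay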
Description: SANGER: Inhibition of human COLO-800 cell growth in a cell viability assay.

[2] = system: DK-MG; format: functional, cell-based, Homo sapiens; conditions: Homo sapiens, DK-MG;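 also: growth inhibition of DK-MG cells, read out with a cell viability assay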
Description: SANGER: Inhibition of human DK-MG cell growth in a cell viability assay.

[3] = system: EFO-27; format: functional, cell-based, Homo sapiens; conditions: Homo sapiens, EFO-27;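 also: growth inhibition of EFO-27 cells, read out with a cell viability assay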
Description: SANGER: Inhibition of human EFO-27 cell growth in a cell viability assay.

[4] = system: GOTO; format: functional, cell-based, Homo sapiens; conditions: Homo sapiens, GOTO;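 also: growth inhibition of GOTO cells, read out by a cell viability assay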
Description: SANGER: Inhibition of human GOTO cell growth in a cell viability assay.

[5] = system: HAL-01; format: functional, cell-based; conditions: Homo sapiens;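 also: growth inhibition of human HAL-01 cells, read out with a cell viability assay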
Description: SANGER: Inhibition of human HAL-01 cell growth in a cell viability assay.

[6] = system: HCC1569; format: functional, cell-based, Homo sapiens; conditions: Homo sapiens, HCC1569;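 also: growth inhibition of human HCC1569 cells, read out with a cell viability assay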
Description: SANGER: Inhibition of human HCC1569 cell growth in a cell viability assay.

[7] = system: HCT-116; format: functional, cell-based, Homo sapiens; conditions: Homo sapiens, HCT-116
Description: SANGER: Inhibition of human HCT-116 cell growth in a cell viability assay.

[8] = system: HGC-27; format: functional, cell-based, Homo sapiens; conditions: Homo sapiens, HGC-27;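 also: growth inhibition of human HGC-27 cells, read out in a cell viability assay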
Description: SANGER: Inhibition of human HGC-27 cell growth in a cell viability assay.

[9] = system: IGR-1; format: functional, cell-based, Homo sapiens; conditions: Homo sapiens, IGR-1;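 also: growth inhibition of human IGR-1 cells, read out with a cell viability assay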
Description: SANGER: Inhibition of human IGR-1 cell growth in a cell viability assay.

[10] = system: IGROV-1; format: functional, cell-based, Homo sapiens; conditions: Homo sapiens, IGROV-1;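 also: reduction of IGROV-1 cell growth, read out with a viability assay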
Description: SANGER: Inhibition of human IGROV-1 cell growth in a cell viability assay.

[11] = system: IST-SL1; format: functional, cell-based, Homo sapiens; conditions: Homo sapiens, IST-SL1;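 also: growth inhibition of human IST-SL1 cells, read out with a cell viability assay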
Description: SANGER: Inhibition of human IST-SL1 cell growth in a cell viability assay.

[12] = system: K562; format: functional, cell-based; conditions: Homo sapiens
Description: SANGER: Inhibition of human K-562 cell growth in a cell viability assay.

[13] = system: KARPAS-45; format: functional, cell-based; conditions: Homo sapiens;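 also: inhibition of cell line growth, read out through a viability assay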
Description: SANGER: Inhibition of human KARPAS-45 cell growth in a cell viability assay.

[14] = system: KLE; format: functional, cell-based, Homo sapiens; conditions: Homo sapiens, KLE;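 also: growth inhibition of human KLE cells, read out with a cell viability assay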
Description: SANGER: Inhibition of human KLE cell growth in a cell viability assay.

[15] = system: KP-4; format: functional, cell-based, Homo sapiens; conditions: Homo sapiens, KP-4; read-out: IC50;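 also: human KP-4 cells, with growth inhibition read out through a cell viability assay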
Description: SANGER: Inhibition of human KP-4 cell growth in a cell viability assay.

[16] = system: LB771-HNC; format: functional, cell-based, Homo sapiens; conditions: Homo sapiens, LB771-HNC;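 also: growth inhibition of LB771-HNC human cells, read out with a cell viability assay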
Description: SANGER: Inhibition of human LB771-HNC cell growth in a cell viability assay.

[17] = system: LOX IMVI; format: functional, cell-based; conditions: Homo sapiens
Description: SANGER: Inhibition of human LOXIMVI cell growth in a cell viability assay.

[18] = system: LU-134-A; format: functional, cell-based; conditions: Homo sapiens
Description: SANGER: Inhibition of human LU-134-A cell growth in a cell viability assay.

[19] = system: LoVo; format: functional, cell-based; conditions: Homo sapiens;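 also: growth inhibition of human LoVo cells, read out with a cell viability assay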
Description: SANGER: Inhibition of human LoVo cell growth in a cell viability assay.

[20] = system: MCF7; format: functional, cell-based, Homo sapiens; conditions: Homo sapiens, MCF7;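 also: growth inhibition of human MCF7 cells, read out with a cell viability assay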
Description: SANGER: Inhibition of human MCF7 cell growth in a cell viability assay.

[21] = system: MHH-PREB-1; format: functional, cell-based; conditions: Homo sapiens;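 also: cell viability assay measuring inhibition of proliferation of human MHH-PREB-1 cells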
Description: SANGER: Inhibition of human MHH-PREB-1 cell growth in a cell viability assay.

[22] = system: MN-60; format: functional, cell-based; conditions: Homo sapiens;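 also: growth inhibition of the MN-60 cell line, determined with a cell viability assay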
Description: SANGER: Inhibition of human MN-60 cell growth in a cell viability assay.

[23] = system: MS-1; format: functional, cell-based; conditions: Homo sapiens;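 also: growth inhibition of MS-1 cells, read out by cell viability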
Description: SANGER: Inhibition of human MS-1 cell growth in a cell viability assay.

[24] = system: NCI-H1648; format: functional, cell-based, Homo sapiens; conditions: Homo sapiens, NCI-H1648;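 also: cell viability assay measuring inhibition of NCI-H1648 cell growth, from the Sanger screening data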
Description: SANGER: Inhibition of human NCI-H1648 cell growth in a cell viability assay.

[25] = system: NCI-H1770; format: functional, cell-based; conditions: Homo sapiens;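 also: growth inhibition of NCI-H1770 cells determined with a viability readout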
Description: SANGER: Inhibition of human NCI-H1770 cell growth in a cell viability assay.

[26] = system: NCI-H2228; format: functional, cell-based, Homo sapiens; conditions: Homo sapiens, NCI-H2228;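 also: growth inhibition of human NCI-H2228 cells, read out by a cell viability assay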
Description: SANGER: Inhibition of human NCI-H2228 cell growth in a cell viability assay.

[27] = system: NCI-H520; format: functional, cell-based, Homo sapiens; conditions: Homo sapiens, NCI-H520;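 also: growth inhibition of NCI-H520 cells, measured by a cell viability assay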
Description: SANGER: Inhibition of human NCI-H520 cell growth in a cell viability assay.

[28] = system: NCI-H596; format: functional, cell-based, Homo sapiens; conditions: Homo sapiens, NCI-H596;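 also: growth inhibition of NCI-H596 cells, read out with a cell viability assay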
Description: SANGER: Inhibition of human NCI-H596 cell growth in a cell viability assay.

[29] = system: NCI-H810; format: functional, cell-based, Homo sapiens; conditions: Homo sapiens, NCI-H810;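 also: IC50 reflects inhibition of cancer cell line growth, read out with a cell viability assay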
Description: SANGER: Inhibition of human NCI-H810 cell growth in a cell viability assay.

[30] = system: SNU-5; format: functional, cell-based; conditions: Homo sapiens;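 also: cell viability readout used to measure growth inhibition in human NCI-SNU-5 cells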
Description: SANGER: Inhibition of human NCI-SNU-5 cell growth in a cell viability assay.

[31] = system: NTERA-2-cl-D1; format: functional, cell-based, Homo sapiens; conditions: Homo sapiens, NTERA-2-cl-D1;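 also: inhibition of cell growth, measured with a cell viability assay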
Description: SANGER: Inhibition of human NTERA-S-cl-D1 cell growth in a cell viability assay.

[32] = system: NY; format: functional, cell-based, Homo sapiens; conditions: Homo sapiens, NY
Description: SANGER: Inhibition of human NY cell growth in a cell viability assay.

[33] = system: OE33; format: functional, cell-based, Homo sapiens; conditions: Homo sapiens, OE33;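 also: growth inhibition of human OE33 cells, measured by a cell viability assay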
Description: SANGER: Inhibition of human OE33 cell growth in a cell viability assay.

[34] = system: OVCAR-3; format: functional, cell-based, Homo sapiens; conditions: Homo sapiens, OVCAR-3;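 also: growth inhibition of human OVCAR-3 cells, determined by a cell viability assay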
Description: SANGER: Inhibition of human OVCAR-3 cell growth in a cell viability assay.

[35] = system: RO82-W-1; format: functional, cell-based, Homo sapiens; conditions: Homo sapiens, RO82-W-1;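 also: growth inhibition of human RO82-W-1 cells, measured with a cell viability assay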
Description: SANGER: Inhibition of human RO82-W-1 cell growth in a cell viability assay.

[36] = system: RPMI-8866; format: functional, cell-based; conditions: Homo sapiens
Description: SANGER: Inhibition of human RPMI-8866 cell growth in a cell viability assay.

[37] = system: SCC-9; format: functional, cell-based, Homo sapiens; conditions: Homo sapiens, SCC-9;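 also: Read-out is a cell viability assay, with values giving inhibition of cell growth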
Description: SANGER: Inhibition of human SCC-9 cell growth in a cell viability assay.

[38] = system: SK-NEP-1; format: functional, cell-based; conditions: Homo sapiens;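 also: growth inhibition of human SK-NEP-1 cells, read out by a cell viability assay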
Description: SANGER: Inhibition of human SK-NEP-1 cell growth in a cell viability assay.

[39] = system: SN12C; format: functional, cell-based, Homo sapiens; conditions: Homo sapiens, SN12C;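 also: growth inhibition of human SN12C cells, measured by a cell viability assay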
Description: SANGER: Inhibition of human SN12C cell growth in a cell viability assay.

[40] = system: SNB-75; format: functional, cell-based, Homo sapiens; conditions: Homo sapiens, SNB-75;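 also: cell viability assay measuring growth inhibition of human SNB-75 cells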
Description: SANGER: Inhibition of human SNB75 cell growth in a cell viability assay.

[41] = system: A704; format: functional, cell-based, Homo sapiens; conditions: Homo sapiens, A704;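 also: growth inhibition of human A704 cells, read out with a cell viability assay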
Description: SANGER: Inhibition of human A704 cell growth in a cell viability assay.

[42] = system: AGS; format: functional, cell-based, Homo sapiens; conditions: Homo sapiens, AGS;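 also: growth inhibition of AGS cells, determined with a cell viability assay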
Description: SANGER: Inhibition of human AGS cell growth in a cell viability assay.

[43] = system: ALL-PO; format: functional, cell-based; conditions: Homo sapiens;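 also: growth inhibition of ALL-PO cells, read out by a cell viability assay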
Description: SANGER: Inhibition of human ALL-PO cell growth in a cell viability assay.

[44] = system: BEN; format: functional, cell-based, Homo sapiens; conditions: Homo sapiens, BEN;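 also: growth inhibition of the BEN cell line, read out with a cell viability assay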
Description: SANGER: Inhibition of human BEN cell growth in a cell viability assay.

[45] = system: CAL-120; format: functional, cell-based, Homo sapiens; conditions: Homo sapiens, CAL-120;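 also: cell growth inhibition, read out as cell viability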
Description: SANGER: Inhibition of human CAL-120 cell growth in a cell viability assay.

[46] = system: CAL-39; format: functional, cell-based, Homo sapiens; conditions: Homo sapiens, CAL-39;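 also: cell viability assay measuring growth inhibition of CAL-39 cells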
Description: SANGER: Inhibition of human CAL-39 cell growth in a cell viability assay.

[47] = system: TK-10; format: functional, cell-based, Homo sapiens; conditions: Homo sapiens, TK-10;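 also: growth inhibition of TK-10 cells, read out in a cell viability assay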
Description: SANGER: Inhibition of human TK10 cell growth in a cell viability assay.

[48] = system: U-266; format: functional, cell-based; conditions: Homo sapiens
Description: SANGER: Inhibition of human U-266 cell growth in a cell viability assay.

[49] = system: UO-31; format: functional, cell-based; conditions: Homo sapiens;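 also: cell viability assay measuring inhibition of cell growth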
Description: SANGER: Inhibition of human U031 cell growth in a cell viability assay.

[50] = system: VMRC-RCZ; format: functional, cell-based; conditions: Homo sapiens;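 also: growth inhibition measured with a cell viability assay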
Description: SANGER: Inhibition of human VMRC-RCZ cell growth in a cell viability assay.

[51] = system: CAS-1; format: functional, cell-based, Homo sapiens; conditions: Homo sapiens, CAS-1;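 also: growth inhibition of CAS-1 cells, measured with a cell viability assay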
Description: SANGER: Inhibition of human CAS-1 cell growth in a cell viability assay.

[52] = system: COLO-678; format: functional, cell-based, Homo sapiens; conditions: Homo sapiens, COLO-678
Description: SANGER: Inhibition of human COLO-678 cell growth in a cell viability assay.

Measured: IC50

C[C@]1(O)C[C@@H](c2nc(-c3ccc4ccc(-c5ccccc5)nc4c3)c3c(N)nccn32)C1 [LINSITINIB]
1510 nM: [25]
259 nM: [16]
2280 nM: [18]
602 nM: [38]
1150 nM: [10]
> 2560 nM: all other assays above
